# Measured values taken from patent US6518423B1, “Benzopiperidine derivatives” (Eisai Co., Ltd., priority 1996, dated 2003).
# Read-outs that look alike come from different tables or passages of the source.
# Key:
# [1] = system: ICAM-1; test: Effect on the expression of ICAM-1 in human cultured umbilical cord endothelial cells (TNF-stimulated, ELISA); format: cell-based; settings: 1 ng/ml TNF, expression with TNF = 100%, without TNF = 0%, read-out: IC50 (50% inhibitory concentration of ICAM-1 expression)
# Experimental: Effect on the Expression of ICAM-1 in Human Cultured Umbilical Cord Endothelial Cells
# Examination was made on the effect on the expression of ICAM-1 which is one of adhesion molecules expressed on the surfaces of cultured endothelia cells. The endotheliall cells were suspended in an MCDB131 medium containing 10% of fetal calf serum and pipetted into a 96-well culture plate (10,000 cells/well). After culturing at 37° C. in the presence of 5% of carbon dioxide for 2 days, 1 ng/ml of a tumor necrosis factor (TNF) and a test compound were added to the 96-well culture plate. After culturing at 37° C. in the presence of 5% of carbon dioxide for 4 hours and then washing with a phosphate buffer once, 0.05% of glutaraldehyde was added thereto. Six minutes thereafter, the plate was washed twice and 1 μg/ml of a mouse antihuman ICAM-1 antibody was added thereto. After allowing to stand for 1 hour, it was washed twice and a peroxidase-labeled sheep antimouse immunoglobulin antibody was added thereto. After allowing to stand for 1 hour, it was washed twice and a color developing substrate for peroxidase (o-phenylenediamine) was added thereto. After allowing to stand at room temperature for 10 minutes, a 1 N solution of sulfuric acid was added thereto. Then the absorbance at 490 nm was measured with the use of an absorptiometer for 96-well plate. The value thus obtained was employed as an indication of the ICAM-1 expression.
# [2] = system: Carrageenin-induced Rat Pleurisy; test: Effect on carrageenin-induced rat pleurisy; format: in vivo; settings: total cell count in pleural exudate 5 hours after carrageenin, dose 10 mg/kg orally 30 minutes before carrageenin; for inhibition in vivo at 10 mg/kg: Rattus norvegicus, po, 5 h, read-out: Inhibitory ratio (%); for Inhibitory ratio (%): 10 mg/kg
# Experimental: Effect on Carrageenin-induced Rat Pleurisy
# 200 μl of a carrageenin solution (10 mg/ml in physiological saline) was intrathoracically injected into rats. Five hours thereafter, blood of the animals was collected from the abdominal aorta under etherization so as to induce death from blood loss. The exudate was taken up from the thoracic cavity and weighed with a single-pan balance. Further, the exudate was diluted with Turk's solution and the cells were counted by using a counting chamber. Next the total cell count was calculated by multiplying the cell count by the exudate volume. Thus the inhibitory ratio was calculated by taking the total cell count with the administration of carrageenin as 100% and that with the administration of physiological saline as 0%. Each test compound was suspended in a 0.5% solution of methylcellulose and orally administered at a dose of 5 ml/kg 30 minutes before the injection of carrageenin.
# [3] = Homo sapiens, Endothelial cell, 4 h
SMILES,melting point [°C],inhibition in vivo at 10 mg/kg [2] [%],"IC50 [1, 3] [nM]",further results
O=C(O)CC1CC2CN(Cc3ccc4c(c3)Nc3nccnc3S4)CC2C1 (centres unmarked) [711],112 to 117,–,–,–
O=C(O)CC1CC2CN(Cc3ccc4c(c3)Nc3nccnc3S4)CC2C1 (centres unmarked) [714],110 to 115,–,–,–
CC(C)(CCCN1CCN(Cc2ccc3c(c2)Nc2nccnc2S3)CC1)C(=O)O [750],240 to 242,–,–,–
CC(C)(CCCN1CCN(Cc2ccc3c(c2)Nc2nccnc2S3)CC1)C(=O)O [751],> 275,–,–,–
"O=C(O)CC1C2CCCC1CN(Cc1ccc3c(c1)Nc1nccnc1S3)C2 (stereo not drawn) [Example 15, (syn)-[3-(10H-Pyrazino[2,3-b][1,4]benzothiazin-8-ylmethyl)-3-azabicyclo[3.3.1]non-9-yl]acetic acid]",–,64,–,IC50 ([1]; 4 hours): 2300 nM
CCOC(=O)CC1C2CCCC1CN(Cc1ccc3c(c1)Nc1nccnc1S3)C2 (centres unmarked) [Example 17],142 to 143,–,–,–
"O=C(O)CC1C2CCCC1CN(Cc1ccc3c(c1)Nc1nccnc1S3)C2 (stereo not drawn) [Example 18, (anti)-[3-(10H-Pyrazino[2,3-b][1,4]benzothiazin-8-ylmethyl)-3-azabicyclo[3.3.1]non-9-yl]acetic acid]",–,–,–,IC50 ([1]; 4 hours): 3500 nM; Inhibitory ratio (%) [2]: 67%
"CC1C(C)C2CN(Cc3ccc4c(c3)Nc3nccnc3S4)CC1C2CC(=O)O (stereo not drawn) [Example 23, (+)-(anti)-(6R*,7R*)-[3-(10H-Pyrazino[2,3-b][1,4]benzothiazin-8-ylmethyl)-6,7-dimethyl-3-azabicyclo[3.2.1]oct-8-yl]acetic acid]",–,52,–,IC50 ([1]; 4 hours): 1600 nM
"CC1C(C)C2CN(Cc3ccc4c(c3)Nc3nccnc3S4)CC1C2CC(=O)O (stereo not drawn) [Example 24, (−)-(anti)-(6R*,7R*)-[3-(10H-Pyrazino[2,3-b][1,4]benzothiazin-8-ylmethyl)-6,7-dimethyl-3-azabicyclo[3.2.1]oct-8-yl]acetic acid]",–,–,–,IC50 ([1]; 4 hours): 4100 nM; Inhibitory ratio (%) [2]: 54%
"CC1CC(C)C2CN(Cc3ccc4c(c3)Nc3nccnc3S4)CC1C2C(C)C(=O)O (stereo not drawn) [Example 30, (+)-(anti)-(6R*,8R*)-2-[3-(10H-pyrazino[2,3-b][1,4]benzothiazin-8-ylmethyl)-6,8-dimethyl-3-azabicyclo[3.3.1]non-9-yl]propanoic acid]",–,–,–,IC50 ([1]; 4 hours): 500 nM; Inhibitory ratio (%) [2]: 85%
"CC1CC(C)C2CN(Cc3ccc4c(c3)Nc3nccnc3S4)CC1C2C(C)C(=O)O (stereo not drawn) [Example 31, (−)-(anti)-(6R*,8R*)-2-[3-(10H-pyrazino[2,3-b][1,4]benzothiazin-8-ylmethyl)-6,8-dimethyl-3-azabicyclo[3.3.1]non-9-yl]propanoic acid]",–,–,–,IC50 ([1]; 4 hours): 1100 nM; Inhibitory ratio (%) [2]: 38%
O=C(O)C=C1C2CCC1CN(Cc1ccc3c(c1)Nc1nccnc1S3)C2 [Example 70],268 to 271,–,2800,–
O=C(O)CC1C2CCC1CN(Cc1ccc3c(c1)Nc1nccnc1S3)C2 (centres unmarked) [Example 71],–,94,800,–
O=C(O)C1C2CCC1CN(Cc1ccc3c(c1)Nc1nccnc1S3)C2 (centres unmarked) [Example 73],–,74,600,–
O=C(O)C1C2CCCC1CN(Cc1ccc3c(c1)Nc1nccnc1S3)C2 (centres unmarked) [Example 74],272 to 275,–,1900,–
CC(C)(C)C1CC2CN(Cc3ccc4c(c3)Nc3nccnc3S4)CC(C1)C2CC(=O)O (centres unmarked) [Example 77],138 to 140,–,2800,–
CC1CC2CN(Cc3ccc4c(c3)Nc3nccnc3S4)CC(C1)C2CC(=O)O (centres unmarked) [Example 78],142 to 146,–,–,–
CC1CC(C)C2CN(Cc3ccc4c(c3)Nc3nccnc3S4)CC1C2CC(=O)O (centres unmarked) [Example 79],–,44,–,–
O=C(O)CC1C2CCCCC1CN(Cc1ccc3c(c1)Nc1nccnc1S3)C2 (centres unmarked) [Example 80],217 to 218,–,4100,–
CC(C(=O)O)C1C2CCCC1CN(Cc1ccc3c(c1)Nc1nccnc1S3)C2 (centres unmarked) [Example 82],–,–,3400,–
CC(C(=O)O)C1C2CCCC1CN(Cc1ccc3c(c1)Nc1nccnc1S3)C2 (centres unmarked) [Example 83],–,34,–,IC50 ([1]; 4 hours): 2800 nM
O=C(O)CC1C2CN(Cc3ccc4c(c3)Nc3nccnc3S4)CC1C21CCC1 (centres unmarked) [Example 85],175 to 180,–,6400,–

SMILES,melting point [°C],inhibition in vivo at 10 mg/kg [2] [%],"IC50 [1, 3] [nM]",further results
O=C(O)CC1C2CN(Cc3ccc4c(c3)Nc3nccnc3S4)CC1C21CCC1 (centres unmarked) [Example 86],90 to 92,–,–,–
O=C(O)CC1C2CC(c3ccccc3)CC1CN(Cc1ccc3c(c1)Nc1nccnc1S3)C2 (centres unmarked) [Example 87],128 to 131,–,2900,–
CC1C(C)C2CN(Cc3ccc4c(c3)Nc3nccnc3S4)CC1C2CC(=O)O (centres unmarked) [Example 89],–,83,2800,–
O=C(O)C12CCCC(CN(Cc3ccc4c(c3)Nc3nccnc3S4)C1)C2 (centres unmarked) [Example 90],186 to 188,–,2800,–
CC1CCC2CN(Cc3ccc4c(c3)Nc3nccnc3S4)CC1C2CC(=O)O (centres unmarked) [Example 91],–,76,2900,–
O=C(O)C1CC2CC(C1)CN(Cc1ccc3c(c1)Nc1nccnc1S3)C2 (centres unmarked) [Example 98],–,30,2400,–
CC(CCC1C2CN(Cc3ccc4c(c3)Nc3nccnc3S4)CC1C(C)CC2C)C(=O)O (centres unmarked) [Example 100],110 to 115,–,3800,–
CC1CC(C)C2CN(Cc3ccc4c(c3)Nc3nccnc3S4)CC1C2CCC(=O)O (centres unmarked) [Example 101],–,48,2600,–
CC1CC(C)C2CN(Cc3ccc4c(c3)Nc3nccnc3S4)CC1C2CCCC(=O)O (centres unmarked) [Example 102],98 to 105,–,2600,–
COC1(CC(=O)O)C2CCCC1CN(Cc1ccc3c(c1)Nc1nccnc1S3)C2 (centres unmarked) [Example 103],217 to 219,–,6600,–
O=C(O)CC12CCCC(CN(Cc3ccc4c(c3)Nc3nccnc3S4)C1)C2 (centres unmarked) [Example 104],215 to 217,–,2800,–
COC1(CC(=O)O)C2CCCC1CN(Cc1ccc3c(c1)Nc1nccnc1S3)C2 (centres unmarked) [Example 105],225 to 228,–,–,IC50 ([1]; 4 hours): 5800 nM
O=C(O)C1CC2CC3CN(Cc4ccc5c(c4)Nc4nccnc4S5)CC(C2)C31 (centres unmarked) [Example 106],–,46,2800,–
CC1(C(=O)O)C2CCCC1CN(Cc1ccc3c(c1)Nc1nccnc1S3)C2 (centres unmarked) [Example 113],264 to 265,–,2500,–
CC1(C(=O)O)C2CCCC1CN(Cc1ccc3c(c1)Nc1nccnc1S3)C2 (centres unmarked) [Example 116],183 to 185,–,–,–
O=C(O)C=C1CC2CCC(C1)N2Cc1ccc2c(c1)Nc1nccnc1S2 [Example 118],206 to 208,–,1600,–
O=C(O)c1ccc(OCCC2C3CCCC2CN(Cc2ccc4c(c2)Nc2nccnc2S4)C3)cc1 (centres unmarked) [Example 121],–,70,7400,–
OC1C2CCCC1CN(Cc1ccc3c(c1)Nc1nccnc1S3)C2 (centres unmarked) [Example 126],215 to 219,–,–,–
OC1C2CCCC1CN(Cc1ccc3c(c1)Nc1nccnc1S3)C2 (centres unmarked) [Example 127],189 to 192,–,–,–
CS(=O)(=O)NC1CCN(Cc2ccc3c(c2)Nc2nccnc2S3)CC1 [Example 402],–,57,320,–
CNc1ncnc2c1ncn2Cc1ccc2c(c1)Nc1nccnc1S2 [Example 1409],279 to 281,–,670,–
